# From patent publication US5919464A, “Treatment of aberrant cellular states with biomodulators” (University of New Mexico, priority 1993, dated 1999)
# Key:
# [1] = tested on: canine glioma tumors; test: canine glioma tumor growth in nude rats, various biomodulators; assay type: in vivo; conditions: in words
# Procedure: C57 BL/6 mice were injected I.M. with B-16 melanoma cells, maintained in culture in the right flank or shoulder. Tumor growth was monitored on a daily basis by physical measurement and by MRI/MRS on a weekly basis. Treatment routes were via intraperitoneal injection using various CAD between 1 μg and 0.001 μg per animal on a M, W, F injection schedule. The animals were terminated by CO2 when the tumors had become 1.0 cm in diameter. Lung metastases were counted.
# Various biomodulators were tested in vivo for their effects on canine glioma tumors established and monitored as above for mice, but in nude rats. […] FIGS. 29-30 show the progression of the tumors over time with treatment with, respectively, PWM, Sw, CAD, HHD-2, HHD-3, HHD-4, and HHD-7.
# [2] = tested on: P-815 mastocytoma cells; test: P-815 cytotoxic T lympholysis / cell mediated lympholysis (CML), spleen cells treated in culture; assay type: cell-based, mouse; conditions: hydrocortisone 2 mg given day -2; hydroxyurea 10^-5M; in words
# Procedure: In this case the P-815 is injected into the H-2 incompatible host and in the Brunner and Cerotini model an antigen specific lympholysis event occurs with an optimum on day 11 at an effector/target ratio of 100:1 with 30% lysis If the spleens of the injected animals are removed on day three there is no observable cytotoxicity; however, if the spleen cells are treated with biomodulator (in this case PWM at 100 ng) there is an enormous increase in the cytotoxicity event. […] The slope represents a measure of the efficiency of kill and in the biomodulator treated cells is approximately 1.6 versus 0.24 for the control antigen driven response on day 11. This represents a seven fold increase in simple cytotoxicity efficiency. Again this is concentration dependent and the kinetics of the response are such that if the cells are left in culture for times which approximate the in vivo 11 day optimum then the lysis values approach the untreated controls. […]
# P 815 mastocytoma cells are grown in culture or as an ascites (DBA H-2/d) and injected into C57BL/6J mice (H-2/b). […] The specificity of the response is assessed by testing the cytotoxicity against EL-4 cells ([…]) which are NK insensitive and histoincompatible with the original target. […]
# Seven effector/target ratios are tested and the percent lysis calculated. […]
# [3] = tested on: human peripheral blood leukocytes (HPBLs); test: HPBL plaque forming cell (PFC) assay / IgG production in vitro (differentiation); assay type: cell-based; conditions: HPBL; for Stimulation of IgG Production, Percent: at the stimulating concentration
# Description: (§1) C. […] This model is used to correlate the effects of biomodulators on the expression of immune response in vitro. The plaque assay disclosed in this reference is used for the determination of the effect of biomodulators on the specificity, class and subclass of individual clones.
# (§2) A. Purification of PWM and separation of the differentiative and proliferative functions Pokeweed Mitogen (PWM) and three of its isomitogens, Pa-1 and Pa-5, which are primarily differentiative in nature, and Pa-2 which is primarily proliferative, were prepared according to the method of Waxdal, supra, except that the iso-mitogens were finally purified by isoelectric focusing.
# Human peripheral blood leukocytes were cultured in a standard tissue culture medium. Aliquots of these cultured cells (1,000,000 cells/ml medium) were cultured for 6 hours, and the specified amount of Formula II compound was added; the cells were then cultured for an additional 90 hours. Sheep red blood cells (SRBC) conditioned with class-specific (IpG) goat anti-human antiserum (1:400) for 2 hours; then guinea pig complement (2%) for 2 hours were conjugated to Protein A as described in detail in Radioimmunoimaging and Radioimmunotherapy, Eds.
# [4] = tested on: human peripheral blood leukocytes (HPBLs); test: HPBL 3H-thymidine incorporation (proliferation); assay type: cell-based; parameters: reference not given here
# Description: as §1, §2
# [5] = target: T1, HMGCoA reductase (Rattus norvegicus, UniProt P51639); test: inhibition of rat liver HMGCoA reductase activity; assay type: biochemical; parameters: from tissue; host or cells: rat liver; conditions: rat liver
# T1 sequence (P51639 1-887): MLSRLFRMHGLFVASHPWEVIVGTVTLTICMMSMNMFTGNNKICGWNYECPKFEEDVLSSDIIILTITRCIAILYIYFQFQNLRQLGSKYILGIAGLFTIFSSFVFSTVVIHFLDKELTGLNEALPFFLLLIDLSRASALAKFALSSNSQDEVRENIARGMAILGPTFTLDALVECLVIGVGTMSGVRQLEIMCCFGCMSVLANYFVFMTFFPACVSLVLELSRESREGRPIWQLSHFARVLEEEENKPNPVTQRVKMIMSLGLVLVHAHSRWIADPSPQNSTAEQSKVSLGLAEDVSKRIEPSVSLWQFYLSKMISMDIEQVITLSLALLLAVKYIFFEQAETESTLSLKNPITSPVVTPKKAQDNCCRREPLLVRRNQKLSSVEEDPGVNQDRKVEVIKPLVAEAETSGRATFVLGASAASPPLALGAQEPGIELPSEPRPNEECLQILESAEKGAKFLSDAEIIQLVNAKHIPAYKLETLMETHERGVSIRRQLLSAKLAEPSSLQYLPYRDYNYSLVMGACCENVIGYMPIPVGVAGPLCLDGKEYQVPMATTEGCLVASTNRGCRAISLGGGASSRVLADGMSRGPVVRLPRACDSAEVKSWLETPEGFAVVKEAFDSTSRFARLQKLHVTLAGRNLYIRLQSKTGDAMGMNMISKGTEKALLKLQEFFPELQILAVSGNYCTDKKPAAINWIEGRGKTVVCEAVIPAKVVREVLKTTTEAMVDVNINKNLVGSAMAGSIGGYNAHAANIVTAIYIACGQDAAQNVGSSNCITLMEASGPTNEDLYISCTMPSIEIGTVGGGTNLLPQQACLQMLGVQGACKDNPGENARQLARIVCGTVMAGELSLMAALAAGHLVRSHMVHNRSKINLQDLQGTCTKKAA
# Description: reductase activity; data obtained according to Example IA.
# [6] = tested on: canine glioma; test: in vivo inhibition of canine glioma in dog brain (NMR)
# Procedure: Canine glioma was implanted surgically into the brains of four outbred dogs (2×10^6 cells). This procedure normally causes death by tumor growth in 14-28 days.
# Simultaneous with implantation, the dogs were each placed on a regimen of compounds according to the invention, Compounds IIa', IIe' and TF004 in various dosages were administered on alternate days (M, W, F) by I.P. injection in phosphate buffered saline.
# Tumor progress was assessed at weekly intervals by NMR, employing GdDTPA as imaging agent. This method illuminates vascularization at the surface of the tumor, and provides images which correlate well with neuropathological observations.
# [7] = 1 ng/kg I.P., treatment begun on day of implantation
Structure (SMILES),"Stimulation of IgG Production, Concentration [3] [pM]","Stimulation of IgG Production, Percent [3] [%]",Proliferation ((3H) thymidine incorporation into DNA) [4],IC50 [5] [µM],other results
CC(C)OC(=O)C[C@H](O)C[C@H](O)/C=C/c1c(C(C)C)nc(-c2ccccc2)n1-c1ccc(F)cc1 [HHD-3],,,,,"canine glioma tumor regression in nude rats [1]: showed no regression effect, just delay of the control growth pattern"
CC(C)OC(=O)C[C@H](O)C[C@@H](O)/C=C/c1c(C(C)C)nc(-c2ccccc2)n1-c1ccc(F)cc1 [HHD-7],,,,,canine glioma tumor regression in nude rats [1]: showed the best regression
C[C@]12CCC(=O)C=C1CC[C@@H]1[C@@H]2[C@@H](O)C[C@@]2(C)[C@H]1CC[C@]2(O)C(=O)CO [Hydrocortisone],,,,,influence on the biomodulator effect on CML [2]: reduced the biomodulator effect
NC(=O)NO [Hydroxyurea],,,,,influence on the biomodulator effect on CML [2]: does not inhibit the biomodulator effect on CML
CC(C)OC(=O)C[C@@H](O)C[C@@H](O)/C=C/c1c(C(C)C)nc(-c2ccccc2)n1-c1ccc(F)cc1 [IIa],200,1700,0.98,3.15,Inhibitory Concentration (inhibiting nonspecific IgG production below normal production) [3]: none found
CC(C)OC(=O)C[C@@H](O)C[C@H](O)/C=C/c1c(C(C)C)nc(-c2ccccc2)n1-c1ccc(F)cc1 [IIb],200,1700,1.0,1.35,Inhibitory Concentration (inhibiting nonspecific IgG production below normal production) [3]: none found
"CC(C)OC(=O)C[C@H](O)C[C@H](O)/C=C/c1c(C(C)C)nc(-c2ccccc2)n1-c1ccc(F)cc1 [IId, reference compound]",100000,320,0.66,0.002,
CC(C)c1nc(-c2ccccc2)n(-c2ccc(F)cc2)c1/C=C/[C@H](O)C[C@H](O)CC(=O)O [TF-002],,,,,"day by which tumor regressed ([6]; pre-treated, 10 ng/kg I.P. M, W, F): ≤ 19 days; later tumor status ([6]; pre-treated, 10 ng/kg, in words): free of tumor"
CC(C)c1c(/C=C/C(O)CC(O)CC(=O)O)n(-c2ccc(F)cc2)c2ccccc12 (stereo not drawn) [TF-004],,,,,"day of complete regression [6, 7]: ≤ 21 days; day of substantial regression [6, 7]: ≤ 15 days; day of complete regression ([6]; treatment begun on Day 11): ≤ 30 days; day of substantial regression ([6]; treatment begun on Day 11): ≤ 21 days"
